Earlier results in patent publication US20110182952A1, “DRUG DELIVERY FROM EMBOLIC AGENTS” (BIOCOMPATIBLES UK LIMITED, priority 2004, published 2011).

Conditions: uterine artery embolization for leiomyomata

## CCN(CC)CC(=O)Nc1c(C)cccc1C [lidocaine]
  arterial spasm on intraarterial use: causes a large amount of spasm
